Reference: patent US10865191B2, “Heterocyclic compounds useful as modulators of TNF alpha” (BRISTOL-MYERS SQUIBB COMPANY, priority 2015, dated 2020)

What follows are molecules tested against TNFα (Homo sapiens, UniProt P01375) (assay: TNF induced HEK-Blue assay (NF-kB-driven secreted alkaline phosphatase reporter)). Conditions: TNF induced HEK-Blue assay IC50 value, TNFα 0.5 ng/mL, HEK-Blue-CD40L cells, 18 h.
Type: cell-based
Experimental: TNF or CD40L-Induced HEK-Blue Assay
Test compounds serially diluted in DMSO were plated in an assay plate (LABCYTE, Cat. # LP-0200) at final concentrations ranging from 0.004 μM to 25 μM. TNFα (final concentration 0.5 ng/mL) or CD40L (final concentration 30 ng/mL) in assay buffer [DMEM, 4.5 g/l glucose (Gibco, Cat. 21063-029), 10% FBS (Sigma, F4135), 1% Penicillin-Streptomycin (Gibco, Cat. 15140-122), 1% Anti-Anti (Gibco, Cat. 15240-112) and 2 mM L-glutamine (Gibco, Cat. 25030-081)] was then added to the assay plate. After a 30 minute pre-incubation at 37° C. and 5% CO2, HEK-Blue™-CD40L cells (INVIVOGEN, Cat. Code hkb-cd40) containing a NF-kB-driven secreted alkaline phosphatase reporter gene were seeded into the assay plate at a density of 20,000 cells per well. This plate was then incubated for 18 h at 37° C. and 5% CO2. Secreted alkaline phosphatase expression was measured using QUANTI-Blue™ (INVIVOGEN, Cat. Code rep-qb1) according to manufacturer's specifications and the assay plate was read on a PerkinElmer Envision at 620 nm.
Inhibition data for the test compound over a range of concentrations was plotted as percentage inhibition of the test compound (100%=maximum inhibition). IC50 values were determined after correcting for background [(sample read-mean of low control)/(mean of high control-mean of low control)] where by the low control is DMSO without stimulation and high control is DMSO with stimulation. The IC50 is defined as the concentration of test compound which produces 50% inhibition and was quantified using the 4 parameter logistic equation to fit the data.

Sequence of TNFα (P01375 77-233 limits assumed): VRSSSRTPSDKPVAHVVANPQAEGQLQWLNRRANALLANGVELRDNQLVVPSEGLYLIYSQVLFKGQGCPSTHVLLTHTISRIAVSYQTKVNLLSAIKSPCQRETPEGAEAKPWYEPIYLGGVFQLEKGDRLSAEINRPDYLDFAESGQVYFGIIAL

IC50 [nM]	SMILES
< 1000	C[C@@H](Nc1c(Cl)cnc2ccc(-c3cnc(C(C)(C)O)nc3)cc12)c1cc(N)ccc1F [Example 374, (R)-2-(5-(4-((1-(5-amino-2-fluorophenyl)ethyl)amino)-3-chloroquinolin-6-yl)pyrimidin-2-yl)propan-2-ol]
1000 to 10000	CC(Nc1c(Cl)cnc2cc(F)c(-c3cnc(C(C)(C)O)nc3)cc12)c1ccccc1F (stereo not drawn) [Example 250, 2-(5-(3-chloro-7-fluoro-4-((1-(2-fluorophenyl)ethyl)amino)quinolin-6-yl)pyrimidin-2-yl)propan-2-ol]
< 1000	CC(Nc1c(Cl)cnc2ccc(-c3cnc(C(C)(C)O)nc3)cc12)c1ccccc1C(F)(F)F (racemic) [Example 151, 2-(5-(3-chloro-4-((1-(2-(trifluoromethyl)phenyl)ethyl)amino)quinolin-6-yl)pyrimidin-2-yl)propan-2-ol]

Same assay, conditions: TNFα 0.5 ng/mL, HEK-Blue-CD40L cells, 18 h; read-out: TNF induced HEK-Blue assay IC50 value

SMILES	IC50 [nM]
Cc1nc2ccc(-c3cnc(C(C)(C)O)nc3)cc2c(N[C@H](C)c2cc(Cc3ccccc3)ccc2F)c1Cl [Example 396, (R)-2-(5-(4-((1-(5-benzyl-2-fluorophenyl)ethyl)amino)-3-chloro-2-methylquinolin-6-yl)pyrimidin-2-yl)propan-2-ol]	< 1000
COc1ccccc1-c1ccc(F)c([C@@H](C)Nc2c(Cl)cnc3ccccc23)c1 [Example 549, (R)-3-chloro-N-(1-(4-fluoro-2′-methoxy-[1,1′-biphenyl]-3-yl)ethyl)quinolin-4-amine]	1000 to 10000
COC(=O)CN1CCN(c2ncc(-c3ccc4ncc(Cl)c(N[C@@H](c5ccccc5F)C(F)F)c4c3)cn2)CC1 [Example 14, (S)-methyl 2-(4-(5-(3-chloro-4-((2,2-difluoro-1-(2-fluorophenyl)ethyl)amino)quinolin-6-yl)pyrimidin-2-yl)piperazin-1-yl)acetate]	< 1000
C[C@@H](Nc1c(Cl)cnc2ccc(-c3cnc(C(C)(C)O)nc3)cc12)C1CCCCC1 [Example 58, (R)-2-(5-(3-chloro-4-((1-cyclohexylethyl)amino)quinolin-6-yl)pyrimidin-2-yl)propan-2-ol]	< 1000
C[C@@H](Nc1c(Cl)cnc2ccc(-c3cnc(C(C)(C)O)nc3)cc12)c1cc(-c2ncccn2)ccc1F [Example 345, (R)-2-(5-(3-chloro-4-((1-(2-fluoro-5-(pyrimidin-2-yl)phenyl)ethyl)amino)quinolin-6-yl)pyrimidin-2-yl)propan-2-ol]	< 1000
Cc1ccc(Br)cc1Nc1c(Cl)c(C)nc2ccccc12 [Example 470, N-(5-bromo-2-methylphenyl)-3-chloro-2-methylquinolin-4-amine]	10000 to 25000
CC(=O)NCc1ccc(-c2ccc3ncc(Cl)c(N[C@H](C)c4ccccc4F)c3c2)cc1 [Example 110, (R)—N-(4-(3-chloro-4-((1-(2-fluorophenyl)ethyl)amino)quinolin-6-yl)benzyl)acetamide]	< 1000
C[C@@H](Nc1c(Cl)cnc2ccccc12)c1cc(-c2cccc(C#N)c2)ccc1F [Example 539, (R)-3′-(1-((3-chloroquinolin-4-yl)amino)ethyl)-4′-fluoro-[1,1′-biphenyl]-3-carbonitrile]	< 1000
Cc1nc2cc(F)c(-c3cnc(C(C)(C)O)nc3)cc2c(N[C@H](C)c2cc(CCC(=O)O)ccc2F)c1Cl [Example 446, (R)-3-(3-(1-((3-chloro-7-fluoro-6-(2-(2-hydroxypropan-2-yl)pyrimidin-5-yl)-2-methylquinolin-4-yl)amino)ethyl)-4-fluorophenyl)propanoic acid]	1000 to 10000
C[C@@H](Nc1c(Cl)cnc2ccc(-c3cnc(C(C)(C)O)nc3)cc12)c1cccc(N2CCOCC2)c1 [Example 136, (R)-2-(5-(3-chloro-4-((1-(3-morpholinophenyl)ethyl)amino)quinolin-6-yl)pyrimidin-2-yl)propan-2-ol]	< 1000
C[C@@H](Nc1c(Cl)cnc2ccccc12)c1cc(-c2cccnc2)ccc1F [Example 461, (R)-3-chloro-N-(1-(2-fluoro-5-(pyridin-3-yl)phenyl)ethyl)quinolin-4-amine]	< 1000
Cc1nc2cc(F)c(-c3cnc(N4CCNC(=O)C4)nc3)cc2c(N[C@H](C)c2cc(C(N)=O)ccc2F)c1Cl [Example 448, (R)-3-(1-((3-chloro-7-fluoro-2-methyl-6-(2-(3-oxopiperazin-1-yl)pyrimidin-5-yl)quinolin-4-yl)amino)ethyl)-4-fluorobenzamide]	< 1000
Cc1ccc(C)c(Nc2c(Cl)c(C)nc3ccc(-c4ccc(C(=O)NCCCCN)nc4)cc23)c1 [Example 65, N-(4-aminobutyl)-5-(3-chloro-4-((2,5-dimethylphenyl)amino)-2-methylquinolin-6-yl) picolinamide]	1000 to 10000
Cc1nc2ccc(-c3cnc(C(C)(C)O)nc3)cc2c(N[C@H](C)c2cccc(OCCO)c2)c1Cl [Example 437, (R)-2-(5-(3-chloro-4-((1-(3-(2-hydroxyethoxy)phenyl)ethyl)amino)-2-methylquinolin-6-yl)pyrimidin-2-yl)propan-2-ol]	< 1000
C=Cc1ccc(F)c([C@H](Nc2c(Cl)c(C)nc3cc(F)c(-c4cnc(C(C)(C)O)nc4)nc23)C(F)F)c1 [Example 494, (S)-2-(5-(7-chloro-8-((2,2-difluoro-1-(2-fluoro-5-vinylphenyl)ethyl)amino)-3-fluoro-6-methyl-1,5-naphthyridin-2-yl)pyrimidin-2-yl) propan-2-ol]	< 1000
CC(Nc1c(Cl)cnc2ccc(-c3ccc(C(C)(C)O)cc3)cc12)c1ccoc1 (racemic) [Example 204, 2-(4-(3-chloro-4-((1-(furan-3-yl)ethyl)amino)quinolin-6-yl)phenyl)propan-2-ol]	< 1000

Next, values leading:

IC50 [nM]	SMILES
< 1000	CC(Nc1c(Cl)cnc2cc(F)c(-c3ccc(C(O)C4CC4)cc3)cc12)c1ccccc1F (stereo not drawn) [Example 260, (4-(3-chloro-7-fluoro-4-((1-(2-fluorophenyl)ethyl)amino)quinolin-6-yl)phenyl)(cyclopropyl)methanol]
< 1000	C[C@@H](Nc1c(Cl)cnc2cc(F)c(-c3cnc(C(C)(C)O)nc3)nc12)c1cc(CO)ccc1F [Example 505, (R)-2-(5-(7-chloro-3-fluoro-8-((1-(2-fluoro-5-(hydroxymethyl)phenyl)ethyl)amino)-1,5-naphthyridin-2-yl)pyrimidin-2-yl)propan-2-ol]
1000 to 10000	C[C@@H](Nc1c(Cl)cnc2ccc(-c3ccc(N4CCNCC4)nc3)cc12)c1ccccc1F [Example 88, (R)-3-chloro-N-(1-(2-fluorophenyl)ethyl)-6-(6-(piperazin-1-yl)pyridin-3-yl)quinolin-4-amine]
< 1000	CC(=O)c1ccc(F)c([C@@H](C)Nc2c(Cl)cnc3ccc(-c4cnc(C(C)(C)O)nc4)cc23)c1 [Example 409, (R)-1-(3-(1-((3-chloro-6-(2-(2-hydroxypropan-2-yl)pyrimidin-5-yl)quinolin-4-yl)amino)ethyl)-4-fluorophenyl)ethan-1-one]
10000 to 25000	CC(Nc1c(Cl)cnc2c(Cl)cc(Br)cc12)c1ccccc1F (racemic) [Example 122, 6-bromo-3,8-dichloro-N-(1-(2-fluorophenyl)ethyl)quinolin-4-amine]
< 1000	C[C@@H](Nc1c(Cl)cnc2ccc(-c3cnc(N4CCN(CC#N)CC4)nc3)cc12)c1ccccc1F [Example 233, (R)-2-(4-(5-(3-chloro-4-((1-(2-fluorophenyl)ethyl)amino)quinolin-6-yl)pyrimidin-2-yl)piperazin-1-yl)acetonitrile]
1000 to 10000	CC(Nc1c(Cl)cnc2cc(F)c(-c3ccc(C(C)(C)O)c(F)c3)cc12)c1ccccc1F (stereo not drawn) [Example 258, 2-(4-(3-chloro-7-fluoro-4-((1-(2-fluorophenyl)ethyl)amino)quinolin-6-yl)-2-fluorophenyl)propan-2-ol]
1000 to 10000	CC(Nc1c(Cl)cnc2c(Cl)cc(-c3cnc(N4CCNC(=O)C4)nc3)cc12)c1ccccc1F (racemic) [Example 18, 4-(5-(3,8-dichloro-4-((1-(2-fluorophenyl)ethyl)amino)quinolin-6-yl)pyrimidin-2-yl)piperazin-2-one]
< 1000	CC(Nc1c(Cl)cnc2cc(F)c(-c3cnc(C(O)CO)nc3)cc12)c1ccccc1F (racemic) [Example 300, 1-(5-(3-chloro-7-fluoro-4-((1-(2-fluorophenyl)ethyl)amino)quinolin-6-yl)pyrimidin-2-yl)ethane-1,2-diol]
1000 to 10000	CC(Nc1c(Cl)cnc2cc(F)c(-c3cnc(N4CCC(O)C4)cn3)cc12)c1ccccc1F (stereo not drawn) [Example 284, 1-(5-(3-chloro-7-fluoro-4-((1-(2-fluorophenyl)ethyl)amino)quinolin-6-yl)pyrazin-2-yl)pyrrolidin-3-ol]
1000 to 10000	CC(=O)NC[C@@H](C(=O)O)N1CCN(c2ncc(-c3ccc4ncc(Cl)c(N[C@H](C)c5ccccc5F)c4c3)cn2)CC1 [Example 95, (S)-3-acetamido-2-(4-(5-(3-chloro-4-(((R)-1-(2-fluorophenyl)ethyl)amino)quinolin-6-yl)pyrimidin-2-yl)piperazin-1-yl)propanoic acid]
